US20210002725A1, “METHODS FOR THE DIAGNOSIS OF METABOLIC DISORDERS USING EPIMETABOLIC SHIFTERS, MULTIDIMENSIONAL INTRACELLULAR MOLECULES, OR ENVIRONMENTAL INFLUENCES” (Berg LLC, priority 2009, published 2021)
“Also recorded” adds a separate entry of the source.

Columns and labels:
SK-MEL-28 mitochondria [1] = assay: LC-MS/MS quantification of Q10 and Q10H2 in mitochondrial enriched samples; format: cell-based; details: for Peak Area Q10: 20% injection
Method: Ten μl of each sample was injected.

HASMC cells = assay: SeaHorse XF analyzer OCR and ECAR; format: cell-based, human; details: hyperglycemic cells in hypoxic conditions
Description: Environmental influencers (e.g., MIMs or Epi-shifters) may also be identified by changes in cellular energetics. One example of the measurement of cellular energetics are the real-time measures of the consumption of molecular oxygen and/or the change in pH of the media of a cell culture. For example, the ability of a potential epi-shifter to modulate the metabolic state of a cell may be analyzed using, for example, the XF24 Analyzer (Seahorse, Inc.). This technology allows for real time detection of oxygen and pH changes in a monolayer of cells in order to evaluate the bioenergetics of a cell microenvironment. The XF24 Analyzer measures and compares the rates of oxygen consumption (OCR), which is a measure of aerobic metabolism, and extracellular acidification (ECAR), which is a measure of glycolysis, both key indicators of cellular energetics.
(SeaHorse Biosciences Inc, North Billerica, Mass.).
In this experiment, the OCR and extracellular acidification rate (ECAR) in normal cells lines were obtained in the presence and absence of CoQ10 to determine baseline values. It was observed that in its native nutrient environment, the basal OCR rates in normal cells lines are different, and are usually a function of the physiological roles of the cells in the body. […]

SK-MEL-28 mitochondria [2] = system: SK-MEL-28 mitochondria
Method: The cells were harvested by washing and scraping the cells from T-160 flasks (4 for each time point). The cells were collected by centrifugation and the pellets flash frozen and stored at −80° C. The cell pellets were resuspended and ruptured using a 2 mL Dounce homogenizer. The reagents and method were obtained from a Mitochondria Isolation Kit for Cultured Cells (MitoSciences, Cat #MS852). The resultant mitochondria samples were divided into 75 μL aliquots (4-5 aliquots per sample) and stored at −80° C.
The samples were subjected to 2-D electrophoresis (in duplicate). Analysis of 525 protein spots in the comparative study was performed, comparing the control samples against the other time point samples (FIG. 11).

[3] = system: HepG2 (liver cancer) cells; assay: Real-time PCR Diabetes Array; format: cell-based; details: for genes regulated in the Diabetes Arrays: 100 μM
Method: The treatment was initiated on 1×10^5 cells per well, following the procedure utilized in the PaCa2 cells (above, Examples 9-11). However, the total amount of RNA that was extracted from these samples was lower than expected. Reverse transcription is normally done using 1 μg of total RNA (determined by measurement at 260 nm).

SCC cells = details: 100 μM Q10; 6 and/or 24 hr
[4] = system: control and cancer cell lines; assay: Sensitivity and apoptotic response of a panel of control and cancer cell lines; format: cell-based; details: various levels of Coenzyme Q10
Method: In a first set of experiments, changes to cell morphology/physiology were evaluated by examining the sensitivy and apoptotic response of cells to CoQ10. […] Exemplary experiments are described in detail in Example 3 below.

[5] = system: HepG2 (liver cancer) cells; assay: Real-time PCR Apoptosis Array; format: cell-based

Q: Which results are given for `COC1=C(OC)C(=O)C(C/C=C(\C)CC/C=C(\C)CC/C=C(\C)CC/C=C(\C)CC/C=C(\C)CC/C=C(\C)CC/C=C(\C)CC/C=C(\C)CC/C=C(\C)CCC=C(C)C)=C(C)C1=O` [Q10, Coenzyme Q10]?
A: increase in mitochondrial Q10 levels (SK-MEL-28 mitochondria [1]; 100 μM Q10, 19 hours, vs untreated): ~3 fold; increase in mitochondrial Q10H2 levels (SK-MEL-28 mitochondria [1]; 100 μM Q10, 48 hour sample, near detection limit): 3 fold; Peak Area Q10 (SK-MEL-28 mitochondria [1]; 100 μM Q10 in the media, 6 hr): 25427; Peak Area Q10 (SK-MEL-28 mitochondria [1]; 100 μM Q10 in the media, 19 hr): 59164; Q10H2 (reduced form) in mitochondrial enriched sample (SK-MEL-28 mitochondria [1]; 100 μM Q10 in the media, 48 hr): 0.28 ng/Sample; Peak Area Q10 (SK-MEL-28 mitochondria [1]; 100 μM Q10 in the media, 48 hr): 164496; form of Q10 in mitochondria (oxidized vs reduced) (SK-MEL-28 mitochondria [1]; exogenous addition of Q10 to the media): maintained in the supplied oxidized form; ECAR rates (HASMC cells): downward trend; Response at later time points (19, 48 hr) (SK-MEL-28 mitochondria [2]; 100 μM Q10): drops more for 19; also recorded: back to normal at 48; also recorded: Up at 19 and 48 hr; also recorded: Up only at 19 hr; also recorded: drop to low levels; Response (direction) at 6 hr (SK-MEL-28 mitochondria [2]; 100 μM Q10, 6 hr): Down and Up; PPARGC1A downregulation ([3]; 100 μM Q10, 16 hours): approximately 20 fold; PRKAA1 downregulation ([3]; 100 μM Q10, 16 hours): ~6 fold; SNAP25 downregulation ([3]; 100 μM Q10, 16 hours): ~5 fold; PPARGC1A regulation ([3]; 100 μM Q10, 48 hours): normalized or were slightly upregulated; PRKAA1 regulation ([3]; 100 μM Q10, 48 hours): normalized or were slightly upregulated; SNAP25 downregulation ([3]; 100 μM Q10, 48 hours): approximately 2 fold; genes regulated in the Diabetes Arrays ([3]; PPARGC1A gene): PPARGC1A; genes regulated in the Diabetes Arrays ([3]; PRKAA1 gene): PRKAA1; genes regulated in the Diabetes Arrays ([3]; SNAP25 gene): SNAP25; Response (direction of protein spot change) (SCC cells): Increase; also recorded: hr, decrease; apoptotic response of cancer vs control cell lines [4]: induction of apoptosis and cell death in the cancer cells only; genes regulated in the Apoptosis Arrays ([5]; 100 μM): BAG1 and CASP9 and TNFRSF1A; BAG1 downregulation over control ([5]; 100 uM Q10, 16 hours): approximately 6 fold; CASP9 upregulation over control ([5]; 100 uM Q10, 16 hours): approximately 61 fold; TNFRSF1A downregulation over control ([5]; 100 uM Q10, 16 hours): ~4 fold; BAG1 upregulation over control ([5]; 100 uM Q10, 48 hours): ~1 fold; CASP9 upregulation over control ([5]; 100 uM Q10, 48 hours): approximately 55 fold; TNFRSF1A upregulation over control ([5]; 100 uM Q10, 48 hours): ~1 fold
